Results on 8 compounds are retold here after patent US11731946B2, “Broad spectrum antivirulence, anti-persistence compounds” (priority 2017, dated 2023).

As usually defined, the IC50 is the concentration that inhibits the measured activity by half.

The structures appear in SMILES notation.

One assay has as its system MvfR regulon. The assay is described as follows: Quantification of pyocyanin (OD520nm of chloroform-extracted cultures). Type of assay: cell-based, P. aeruginosa. The note with it: Pseudomonas aeruginosa, read-out: pyocyanin @50 uM (%), compound at 50 uM.
For `N#Cc1ccc(NC(=O)CCC(=O)Nc2ccc(F)cc2)cc1` [Compound 61], the activity at 50 µM was 99%.

Regarding `Cc1cc(F)ccc1NC(=O)CC(=O)Nc1ccc(C#N)cc1` [Compound 62], the activity at 50 µM amounted to 59.5%.

Turning to `CC(=O)c1ccc(NC(=O)CC(=O)Nc2ccc(C#N)cc2)cc1` [Compound 63], the activity at 50 µM is 65.6%.

For `N#Cc1ccc(NC(=O)CC(=O)Nc2ccc(C(=O)C(F)(F)F)cc2)cc1` [Compound 64], the activity at 50 µM is 84%.

Regarding `N#Cc1ccc(NC(=O)CC(=O)Nc2ccc(N)cc2)cc1` [Compound 67], the activity at 50 µM was 87.2%.

In the case of `CC(=O)Nc1ccc(NC(=O)CC(=O)Nc2ccc(C#N)cc2)cc1` [Compound 68], the activity at 50 µM is 103%.

For the compound `N#Cc1ccc(NC(=O)CC(=O)Nc2ccc(NC(=O)C(F)(F)F)cc2)cc1` [Compound 69], the activity at 50 µM turned out to be 93.8%.

Consider `CS(=O)(=O)CNc1ccc(NC(=O)CC(=O)Nc2ccc(C#N)cc2)cc1` [Compound 70], for which the activity at 50 µM was found to be 99.7%.

The subject of the next assay is MvfR regulon. Kind of assay: pqsA gene expression (pqsA-GFP reporter). The following applies: Pseudomonas aeruginosa, read-out: IC50 pqsA (μM). Format: cell-based, P. aeruginosa.
With `CC(=O)c1ccc(NC(=O)CC(=O)Nc2ccc(C#N)cc2)cc1` [Compound 63], the IC50 is 57.1 µM.

The assay is the same for the next values; noted with them: Pseudomonas aeruginosa, read-out: pqsA @10 uM (%), compound at 10 uM.
With `N#Cc1ccc(NC(=O)CCC(=O)Nc2ccc(F)cc2)cc1` [Compound 61], the activity at 10 µM came to 112%.

Regarding `Cc1cc(F)ccc1NC(=O)CC(=O)Nc1ccc(C#N)cc1` [Compound 62], the activity at 10 µM came out at 110%.

For the compound `CC(=O)c1ccc(NC(=O)CC(=O)Nc2ccc(C#N)cc2)cc1` [Compound 63], the activity at 10 µM is 86.5%.

Regarding `N#Cc1ccc(NC(=O)CC(=O)Nc2ccc(C(=O)C(F)(F)F)cc2)cc1` [Compound 64], the activity at 10 µM was 107%.

As for `N#Cc1ccc(NC(=O)CC(=O)Nc2ccc(N)cc2)cc1` [Compound 67], the activity at 10 µM was found to be 97.9%.

With `CC(=O)Nc1ccc(NC(=O)CC(=O)Nc2ccc(C#N)cc2)cc1` [Compound 68], the activity at 10 µM amounted to 94.2%.

Consider `N#Cc1ccc(NC(=O)CC(=O)Nc2ccc(NC(=O)C(F)(F)F)cc2)cc1` [Compound 69], for which the activity at 10 µM came to 94.2%.

With `CS(=O)(=O)CNc1ccc(NC(=O)CC(=O)Nc2ccc(C#N)cc2)cc1` [Compound 70], the activity at 10 µM came out at 94.7%.

Staying with this assay, now noted: Pseudomonas aeruginosa, read-out: pqsA @50 uM (%), compound at 50 uM.
With `N#Cc1ccc(NC(=O)CCC(=O)Nc2ccc(F)cc2)cc1` [Compound 61], the activity at 50 µM stood at 77.8%.

For `Cc1cc(F)ccc1NC(=O)CC(=O)Nc1ccc(C#N)cc1` [Compound 62], the activity at 50 µM came out at 43.6%.

As for `CC(=O)c1ccc(NC(=O)CC(=O)Nc2ccc(C#N)cc2)cc1` [Compound 63], the activity at 50 µM stood at 28%.

Turning to `N#Cc1ccc(NC(=O)CC(=O)Nc2ccc(C(=O)C(F)(F)F)cc2)cc1` [Compound 64], the activity at 50 µM worked out at 102%.

As to `N#Cc1ccc(NC(=O)CC(=O)Nc2ccc(N)cc2)cc1` [Compound 67], the activity at 50 µM is 89.7%.

Regarding `CC(=O)Nc1ccc(NC(=O)CC(=O)Nc2ccc(C#N)cc2)cc1` [Compound 68], the activity at 50 µM worked out at 84.8%.

For `N#Cc1ccc(NC(=O)CC(=O)Nc2ccc(NC(=O)C(F)(F)F)cc2)cc1` [Compound 69], the activity at 50 µM is 84.9%.

Take `CS(=O)(=O)CNc1ccc(NC(=O)CC(=O)Nc2ccc(C#N)cc2)cc1` [Compound 70]: the activity at 50 µM stood at 131%.

The test system of a further assay is MvfR regulon. The assay is described as follows: LC/MS quantification of HAQs and related molecules in bacterial culture supernatants. Format: cell-based, P. aeruginosa. The note with it: Pseudomonas aeruginosa, read-out: 2-AA @50 uM.
As for `N#Cc1ccc(NC(=O)CCC(=O)Nc2ccc(F)cc2)cc1` [Compound 61], the activity at 50 µM was 93.6%.

Regarding `Cc1cc(F)ccc1NC(=O)CC(=O)Nc1ccc(C#N)cc1` [Compound 62], the activity at 50 µM turned out to be 72.7%.

Regarding `CC(=O)c1ccc(NC(=O)CC(=O)Nc2ccc(C#N)cc2)cc1` [Compound 63], the activity at 50 µM stood at 89.9%.

On to `N#Cc1ccc(NC(=O)CC(=O)Nc2ccc(C(=O)C(F)(F)F)cc2)cc1` [Compound 64], for which the activity at 50 µM is 140%.

On to `N#Cc1ccc(NC(=O)CC(=O)Nc2ccc(N)cc2)cc1` [Compound 67], for which the activity at 50 µM is 101%.

As for `CC(=O)Nc1ccc(NC(=O)CC(=O)Nc2ccc(C#N)cc2)cc1` [Compound 68], the activity at 50 µM stood at 92.8%.

On to `N#Cc1ccc(NC(=O)CC(=O)Nc2ccc(NC(=O)C(F)(F)F)cc2)cc1` [Compound 69], for which the activity at 50 µM stood at 117%.

In the case of `CS(=O)(=O)CNc1ccc(NC(=O)CC(=O)Nc2ccc(C#N)cc2)cc1` [Compound 70], the activity at 50 µM was 94.8%.

Staying with this assay, now noted: Pseudomonas aeruginosa, read-out: AA @50 uM.
Regarding `N#Cc1ccc(NC(=O)CCC(=O)Nc2ccc(F)cc2)cc1` [Compound 61], the activity at 50 µM stood at 42.4%.

For the compound `Cc1cc(F)ccc1NC(=O)CC(=O)Nc1ccc(C#N)cc1` [Compound 62], the activity at 50 µM stood at 58.7%.

For `CC(=O)c1ccc(NC(=O)CC(=O)Nc2ccc(C#N)cc2)cc1` [Compound 63], the activity at 50 µM turned out to be 131%.

Take `N#Cc1ccc(NC(=O)CC(=O)Nc2ccc(C(=O)C(F)(F)F)cc2)cc1` [Compound 64]: the activity at 50 µM was 176%.

Consider `N#Cc1ccc(NC(=O)CC(=O)Nc2ccc(N)cc2)cc1` [Compound 67], for which the activity at 50 µM was 115%.

For `CC(=O)Nc1ccc(NC(=O)CC(=O)Nc2ccc(C#N)cc2)cc1` [Compound 68], the activity at 50 µM is 56%.

Turning to `N#Cc1ccc(NC(=O)CC(=O)Nc2ccc(NC(=O)C(F)(F)F)cc2)cc1` [Compound 69], the activity at 50 µM worked out at 82.4%.

For the compound `CS(=O)(=O)CNc1ccc(NC(=O)CC(=O)Nc2ccc(C#N)cc2)cc1` [Compound 70], the activity at 50 µM came to 117%.

Staying with this assay, now noted: Pseudomonas aeruginosa, read-out: DHQ @50 uM.
For the compound `N#Cc1ccc(NC(=O)CCC(=O)Nc2ccc(F)cc2)cc1` [Compound 61], the activity at 50 µM was 93%.

Turning to `Cc1cc(F)ccc1NC(=O)CC(=O)Nc1ccc(C#N)cc1` [Compound 62], the activity at 50 µM came out at 84.7%.

For the compound `CC(=O)c1ccc(NC(=O)CC(=O)Nc2ccc(C#N)cc2)cc1` [Compound 63], the activity at 50 µM is 106%.

`N#Cc1ccc(NC(=O)CC(=O)Nc2ccc(C(=O)C(F)(F)F)cc2)cc1` [Compound 64]: the activity at 50 µM stood at 88.8%.

On to `N#Cc1ccc(NC(=O)CC(=O)Nc2ccc(N)cc2)cc1` [Compound 67], for which the activity at 50 µM came out at 103%.

Take `CC(=O)Nc1ccc(NC(=O)CC(=O)Nc2ccc(C#N)cc2)cc1` [Compound 68]: the activity at 50 µM was determined as 98.2%.

Consider `N#Cc1ccc(NC(=O)CC(=O)Nc2ccc(NC(=O)C(F)(F)F)cc2)cc1` [Compound 69], for which the activity at 50 µM was 108%.

For the compound `CS(=O)(=O)CNc1ccc(NC(=O)CC(=O)Nc2ccc(C#N)cc2)cc1` [Compound 70], the activity at 50 µM was found to be 80%.

Still in this assay, the particulars now being: Pseudomonas aeruginosa, read-out: HHQ @50 uM (%).
As to `N#Cc1ccc(NC(=O)CCC(=O)Nc2ccc(F)cc2)cc1` [Compound 61], the activity at 50 µM amounted to 79%.

With `Cc1cc(F)ccc1NC(=O)CC(=O)Nc1ccc(C#N)cc1` [Compound 62], the activity at 50 µM is 79.6%.

With `CC(=O)c1ccc(NC(=O)CC(=O)Nc2ccc(C#N)cc2)cc1` [Compound 63], the activity at 50 µM is 120%.

For `N#Cc1ccc(NC(=O)CC(=O)Nc2ccc(C(=O)C(F)(F)F)cc2)cc1` [Compound 64], the activity at 50 µM came out at 107%.

For the compound `N#Cc1ccc(NC(=O)CC(=O)Nc2ccc(N)cc2)cc1` [Compound 67], the activity at 50 µM is 92.3%.

Take `CC(=O)Nc1ccc(NC(=O)CC(=O)Nc2ccc(C#N)cc2)cc1` [Compound 68]: the activity at 50 µM was found to be 74.7%.

Consider `N#Cc1ccc(NC(=O)CC(=O)Nc2ccc(NC(=O)C(F)(F)F)cc2)cc1` [Compound 69], for which the activity at 50 µM stood at 103%.

Regarding `CS(=O)(=O)CNc1ccc(NC(=O)CC(=O)Nc2ccc(C#N)cc2)cc1` [Compound 70], the activity at 50 µM came out at 130%.

Still in this assay, the particulars now being: Pseudomonas aeruginosa, read-out: HQNO @50 uM (%).
Take `N#Cc1ccc(NC(=O)CCC(=O)Nc2ccc(F)cc2)cc1` [Compound 61]: the activity at 50 µM is 85.5%.

For the compound `Cc1cc(F)ccc1NC(=O)CC(=O)Nc1ccc(C#N)cc1` [Compound 62], the activity at 50 µM was found to be 86.5%.

With `CC(=O)c1ccc(NC(=O)CC(=O)Nc2ccc(C#N)cc2)cc1` [Compound 63], the activity at 50 µM was determined as 101%.

Turning to `N#Cc1ccc(NC(=O)CC(=O)Nc2ccc(C(=O)C(F)(F)F)cc2)cc1` [Compound 64], the activity at 50 µM was found to be 103%.

For the compound `N#Cc1ccc(NC(=O)CC(=O)Nc2ccc(N)cc2)cc1` [Compound 67], the activity at 50 µM came to 91.7%.

As for `CC(=O)Nc1ccc(NC(=O)CC(=O)Nc2ccc(C#N)cc2)cc1` [Compound 68], the activity at 50 µM worked out at 84.6%.

On to `N#Cc1ccc(NC(=O)CC(=O)Nc2ccc(NC(=O)C(F)(F)F)cc2)cc1` [Compound 69], for which the activity at 50 µM was 101%.

As for `CS(=O)(=O)CNc1ccc(NC(=O)CC(=O)Nc2ccc(C#N)cc2)cc1` [Compound 70], the activity at 50 µM was found to be 98.3%.

Staying with this assay, now noted: Pseudomonas aeruginosa, read-out: PQS @50 uM (%).
Consider `N#Cc1ccc(NC(=O)CCC(=O)Nc2ccc(F)cc2)cc1` [Compound 61], for which the activity at 50 µM stood at 87.2%.

As for `Cc1cc(F)ccc1NC(=O)CC(=O)Nc1ccc(C#N)cc1` [Compound 62], the activity at 50 µM was 83.5%.

Regarding `CC(=O)c1ccc(NC(=O)CC(=O)Nc2ccc(C#N)cc2)cc1` [Compound 63], the activity at 50 µM was found to be 119%.

In the case of `N#Cc1ccc(NC(=O)CC(=O)Nc2ccc(C(=O)C(F)(F)F)cc2)cc1` [Compound 64], the activity at 50 µM stood at 104%.

Turning to `N#Cc1ccc(NC(=O)CC(=O)Nc2ccc(N)cc2)cc1` [Compound 67], the activity at 50 µM was found to be 86.4%.

Regarding `CC(=O)Nc1ccc(NC(=O)CC(=O)Nc2ccc(C#N)cc2)cc1` [Compound 68], the activity at 50 µM was determined as 87.6%.

Regarding `N#Cc1ccc(NC(=O)CC(=O)Nc2ccc(NC(=O)C(F)(F)F)cc2)cc1` [Compound 69], the activity at 50 µM was 101%.

With `CS(=O)(=O)CNc1ccc(NC(=O)CC(=O)Nc2ccc(C#N)cc2)cc1` [Compound 70], the activity at 50 µM was found to be 115%.
